Results as given in patent publication US11712055B2, “Stevia composition” (PURECIRCLE SDN. BHD., priority 2011, dated 2023).

How the values were obtained:
[1] = cited from earlier work; for times sweeter than sucrose: Tanaka 1987, Phillips 1989; for times sweeter than sucrose (sensory evaluations): Crammer and Ikan 1986
Water solubility = assay type: physicochemical; details: in water at 25° C.
[2] = Chang and Cook 1983; cited from earlier work
[3] = Kinghorn 2002; cited from earlier work

C=C1C[C@@]23CC[C@H]4[C@@](C)(CCC[C@@]4(C)C(=O)O[C@@H]4O[C@H](CO)[C@@H](O)[C@H](O)[C@H]4O)[C@@H]2CC[C@]1(O[C@@H]1O[C@H](CO)[C@@H](O)[C@H](O)[C@H]1O[C@@H]1O[C@@H](C)[C@H](O)[C@@H](O)[C@H]1O)C3 [Dulcoside A]
times sweeter than sucrose [1]: 30 times

C=C1CC23CCC4C(C)(C(=O)[O-])CCCC4(C)C2CCC1(OC1OC(CO)C(O)C(OC2OC(CO)C(O)C(O)C2O)C1OC1OC(CO)C(O)C(O)C1O)C3.[K+] (stereo not shown) [Example 5, reb B potassium salt]
water solubility of obtained material (Water solubility): about 0.1 % (w/v)

C=C1C[C@@]23CC[C@H]4[C@@](C)(CCC[C@@]4(C)C(=O)O[C@@H]4O[C@H](CO)[C@@H](O)[C@H](O)[C@H]4O)[C@@H]2CC[C@]1(O[C@@H]1O[C@H](CO)[C@@H](O)[C@H](O[C@@H]2O[C@H](CO)[C@@H](O)[C@H](O)[C@H]2O)[C@H]1O[C@@H]1O[C@H](CO)[C@@H](O)[C@H](O)[C@H]1O)C3 [Reb A, rebaudioside A]
times sweeter than sucrose (sensory evaluations) [1]: 350-450 times
stability in carbonated beverages [2]: heat and pH stability

C=C1C[C@@]23CC[C@H]4[C@@](C)(CCC[C@@]4(C)C(=O)O[C@@H]4O[C@H](CO)[C@@H](O)[C@H](O)[C@H]4O)[C@@H]2CC[C@]1(O[C@@H]1O[C@H](CO)[C@@H](O)[C@H](O)[C@H]1O[C@@H]1O[C@H](CO)[C@@H](O)[C@H](O)[C@H]1O)C3 [stevioside]
times sweeter than sucrose [1]: 110-270 times
stability in carbonated beverages [2]: heat and pH stability

Rebaudioside B [reb B]
water solubility (reported) [3]: about 0.1%
times sweeter than sucrose (sensory evaluations) [1]: 300-350 times

rebaudioside B [Example 3]
water solubility of obtained material (Water solubility): about 0.1 % (w/v)

rebaudioside C
times sweeter than sucrose [1]: 40-60 times
